≈ marks a conversion by molar mass, not a printed value. Read-outs that look alike come from different tables or passages of the source.

We go through 8 compounds from patent publication US20230172899A1, “CANNABINOID COMPOSITIONS” (priority 2020, published 2023).

In experiment [1] the test system is store-operated calcium entry (SOCE) in Jurkat T cells. In words: SOCE inhibition, Fura-2 Ca2+ bioassay, thapsigargin-induced, Jurkat cells. It is filed as cell-based, human. The following applies: for IC50: Homo sapiens, Jurkat; for IC50 on SOCE relative to acidic variations: dose response 0 to 30 μM; for Combinatory effect on SOCE inhibition when paired with CBGA: isobolographic analysis, pairs expected to inhibit 50%.

Experiment [2] deals with store-operated calcium entry (SOCE) in U937 monocytes. In words: SOCE inhibition, Fura-2 Ca2+ bioassay, thapsigargin-induced, U937 cells. It is filed as cell-based, human. The following applies: Homo sapiens.
The subject of experiment [3] is store-operated calcium entry (SOCE) in Luva human mast cells. Nature of the experiment: SOCE inhibition, Fura-2 Ca2+ bioassay, thapsigargin-induced, Luva cells. The following applies: Homo sapiens, Mast cell, read-out: IC50 SOCE Luva. It is filed as cell-based.
Experiment [4] concerns store-operated calcium entry (SOCE) in RBL-2H3 rat mast cells. In words: SOCE inhibition, Fura-2 Ca2+ bioassay, thapsigargin-induced, RBL-2H3 cells. It is filed as cell-based. The following applies: Rattus norvegicus.
The test system of experiment [5] is store-operated calcium entry (SOCE) in HEK293 cells. Nature of the experiment: SOCE inhibition, Fura-2 Ca2+ bioassay, thapsigargin-induced, HEK293 cells. The following applies: for IC50: Homo sapiens. It is filed as cell-based, human.
The subject of experiment [6] is store-operated calcium entry (SOCE) in THP-1 cells. Nature of the experiment: SOCE inhibition, combinatory (isobolographic) analysis, THP-1 cells. It is filed as cell-based, human. The following applies: for IC50: Homo sapiens, THP-1, read-out: SOCE IC50. The protocol: Bar graphs shown in FIGS. 10A-10Z and 10BB display SOCE amplitudes calculated from area under the curve (AUC) of the SOCE signals and normalized to SOCE in the presence of gadolinium. Combinatory effects were assessed using an isobolographic analysis approach, where CBGA was paired with another cannabinoid using concentrations of CBGA corresponding to 50%, 40%, 30%, 20%, 10%, and 0% inhibition (as derived from the IC50 curves of FIGS. 9A-9P) and combined with concentrations of the paired cannabinoid, so that each combination would be expected to inhibit 50% of the Ca^2+ signal (e.g., the CBGA concentration causing 50% inhibition was tested alone without the other cannabinoid, the CBGA concentration expected to block 40% of the signal was combined with the concentration of the other cannabinoid expected to inhibit 10%, the CBGA concentration expected to block 30% of the signal was combined with the concentration of the other cannabinoid expected to inhibit 20%, and so on). Simple additivity of cannabinoid pairs would be expected to inhibit the Ca^2+ signal by 50%. All the data in these experiments represent an average of 3 independent runs and the values are graphed as mean values±SEM.

Experiment [7] shares this test system. The description is as above. The following applies: 10 μM cannabinoid plus 2.2 μM CBGA. It is filed as cell-based, human.
Experiment [8] concerns CRAC channels (ICRAC). In words: Whole-cell patch clamp of IP3-induced ICRAC in Jurkat cells. It is filed as cell-based, human. The following applies: 10 μM, 50 μM IP3, −120 mV. As to the method:
The ability of CBGA to inhibit store-operated calcium entry (SOCE) within cells was experimentally interrogated (see FIG. 12). Jurkat cells were perfused with 50 μM IP3 to induce store depletion and activation of CRAC channels (the resulting Ca^2+ inward current is known as ICRAC). ICRAC is a long-lasting inward current at −120 mV membrane potential (black trace) that can be blocked by 10 μM CBGA (gray trace).
(§1) Inward CRAC currents were induced at −120 mV (gray trace) and outward currents at +40 mV (black trace, where CRAC currents reverse and are essentially absent). At the +40 mV voltage potential, TRPM7 channels produce monovalent outward currents. Perfusion of 50 μM IP3 activates ICRAC at −120 mV as above and the removal of intracellular ATP slowly activates TRPM7 current at +40 mV. Application of 10 μM CBGA blocks both outward TRPM7 and inward CRAC currents (see FIG. 13, black and gray traces, respectively). Without being bound by theory, CBGA may also block TRPM7's kinase activity, similar to other TRPM7 blockers such as NS8593.
A general note: In patch-clamp work, channel activity is measured electrically.

Experiment [9] deals with T1, TRPM7 (Homo sapiens, UniProt Q96QT4). In words: Whole-cell patch clamp of TRPM7 outward current in Jurkat cells. It is filed as cell-based. More on the design: endogenous in cells; host or cells: Jurkat. The following applies: 10 μM, +40 mV, removal of intracellular ATP. As to the method: as §1
Target sequence in this assay (Q96QT4 whole entry): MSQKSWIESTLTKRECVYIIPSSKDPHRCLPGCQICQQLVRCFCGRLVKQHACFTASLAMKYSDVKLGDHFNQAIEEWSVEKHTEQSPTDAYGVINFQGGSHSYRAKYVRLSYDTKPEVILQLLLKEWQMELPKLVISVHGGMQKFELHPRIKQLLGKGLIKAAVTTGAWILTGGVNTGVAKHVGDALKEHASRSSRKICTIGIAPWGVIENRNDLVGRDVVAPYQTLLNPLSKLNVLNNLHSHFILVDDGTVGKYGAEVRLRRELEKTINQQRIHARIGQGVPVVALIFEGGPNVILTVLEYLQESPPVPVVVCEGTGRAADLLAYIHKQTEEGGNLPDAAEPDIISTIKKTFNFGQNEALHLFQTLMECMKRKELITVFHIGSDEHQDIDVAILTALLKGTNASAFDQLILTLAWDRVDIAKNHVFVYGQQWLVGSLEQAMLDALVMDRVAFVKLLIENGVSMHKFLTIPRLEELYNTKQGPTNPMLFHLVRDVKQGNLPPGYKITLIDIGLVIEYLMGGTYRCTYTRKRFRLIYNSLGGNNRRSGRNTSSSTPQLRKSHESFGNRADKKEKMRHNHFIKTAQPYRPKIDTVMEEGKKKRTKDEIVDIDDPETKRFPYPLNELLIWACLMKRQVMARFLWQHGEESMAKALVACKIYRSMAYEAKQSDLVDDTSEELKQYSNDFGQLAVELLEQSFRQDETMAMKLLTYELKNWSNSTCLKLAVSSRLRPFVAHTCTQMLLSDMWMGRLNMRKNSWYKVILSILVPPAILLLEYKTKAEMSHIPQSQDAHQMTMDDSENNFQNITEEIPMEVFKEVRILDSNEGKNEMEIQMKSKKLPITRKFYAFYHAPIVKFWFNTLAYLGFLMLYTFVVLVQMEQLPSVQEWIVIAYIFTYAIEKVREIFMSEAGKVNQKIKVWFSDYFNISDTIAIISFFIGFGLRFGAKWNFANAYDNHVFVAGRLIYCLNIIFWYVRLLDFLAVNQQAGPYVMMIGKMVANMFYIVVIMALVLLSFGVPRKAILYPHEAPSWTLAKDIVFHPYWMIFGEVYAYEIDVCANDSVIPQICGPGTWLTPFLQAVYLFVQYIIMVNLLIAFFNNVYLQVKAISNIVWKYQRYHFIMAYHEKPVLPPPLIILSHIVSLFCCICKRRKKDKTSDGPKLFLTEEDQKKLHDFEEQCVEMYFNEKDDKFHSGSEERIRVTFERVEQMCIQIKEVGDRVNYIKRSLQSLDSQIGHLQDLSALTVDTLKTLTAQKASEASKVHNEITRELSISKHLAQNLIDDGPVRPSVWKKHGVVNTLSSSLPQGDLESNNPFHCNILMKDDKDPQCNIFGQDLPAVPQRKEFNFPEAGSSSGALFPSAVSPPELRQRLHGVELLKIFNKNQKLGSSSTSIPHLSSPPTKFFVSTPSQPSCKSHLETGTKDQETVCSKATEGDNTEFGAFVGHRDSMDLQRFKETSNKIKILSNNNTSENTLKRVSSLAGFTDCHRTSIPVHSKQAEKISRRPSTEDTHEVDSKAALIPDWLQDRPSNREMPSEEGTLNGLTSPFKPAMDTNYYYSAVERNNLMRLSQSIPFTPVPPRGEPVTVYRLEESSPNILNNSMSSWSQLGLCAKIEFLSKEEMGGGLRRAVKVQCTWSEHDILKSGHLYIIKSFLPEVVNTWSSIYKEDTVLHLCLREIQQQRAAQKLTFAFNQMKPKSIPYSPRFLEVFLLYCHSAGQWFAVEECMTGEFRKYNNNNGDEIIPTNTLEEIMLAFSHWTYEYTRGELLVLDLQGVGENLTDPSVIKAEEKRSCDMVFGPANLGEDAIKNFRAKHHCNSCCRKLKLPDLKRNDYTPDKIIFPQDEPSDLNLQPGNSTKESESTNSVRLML
The target of experiment [10] is T1, TRPM7. In words: Whole-cell patch clamp of TRPM7 over-expressed in HEK293 cells. It is filed as cell-based. Also on record: expressed in transfected cells; host or cells: HEK293. The following applies: HEK293 over-expressing TRPM7; 1, 3, 10 or 30 μM; +40 mV; 0 ATP, 0 Mg2+. The protocol: Activation of TRPM7 over-expressed in HEK293 cells by perfusing the cells with intracellular solution containing 0 ATP and 0 Mg^2+, resulting in fast and maximal activation of TRPM7 outward currents at +40 mV is shown in FIG. 14.
Data from dose-response curves for the inhibition of TRPM7 currents (dark gray symbols) obtained in experiments shown in FIG. 14 and SOCE-mediated increases in intracellular Ca^2+ (light gray symbols) are shown in FIG. 15.
Target sequence in this assay (Q96QT4 whole entry, species assumed): as the sequence (Q96QT4 whole entry) above

The subject of experiment [11] is store-operated calcium entry (SOCE) in various cell types. In words: Thapsigargin-induced SOCE Fura-2 bioassay across various cell types. The following applies: 1 μM; positive control; Jurkat, U937, Luva, RBL-2H3, HL-60, HEK-293. It is filed as cell-based. As to the method:
A Fura-2 calcium flux assay was used to determine cytoplasmic Ca^2+ levels. Briefly, cells were preloaded with Fura-2 AM, and fluorescence intensity in cells intensity was measured over time as a ratio of detected 510 nm fluorescent light emission intensity when excited by UV light at 340 nm and 380 nm wavelengths (f340/f380 ratio). Gadolinium (Gd^3+) is known to block SOCE at a concentration of 1 μM and was used at 1 μM as a positive control in these experiments (gray line).
FIGS. 11TT-11-XX show dose-response curves for hemp varieties on store-operated calcium entry (SOCE) induced by thapsigargin in HEK-293, Jurkat, U937, LUVA, and RBL-2H3 cells. Hemp extracts (cold extracted and unheated) were tested at 6 different doses from 1 to 50 μg/ml. The effects on SOCE amplitude were plotted in a dose-dependent manner to determine the IC50 for each tested compound (see Table 6 for determined IC50 values). All data are averages of three independent runs±SEM. Tested hemp varieties were: Otto-18, Harlequin (HAR), and BOAX.
The general extraction method of Example 6 was carried out, and hemp extracts were subjected to heat treatment prior to testing for activity in the SOCE assay. In some instances, unheated and heated hemp extracts were combined prior to activity testing in the SOCE assay.

[12] abbreviates: U-937, read-out: IC50 SOCE U937.
Setting [13] is: RBL-2H3, read-out: IC50 SOCE RBL-2H3, Table 5, individual cannabinoids, RBL-2H3.
Setting [14] is: HEK293, read-out: IC50 SOCE HEK-293, Table 5, individual cannabinoids, HEK-293.
Where [15] appears, read: read-out: IC50 SOCE Jurkat, Table 5, individual cannabinoids.
[16] abbreviates: U-937, read-out: IC50 SOCE U937, Table 5, individual cannabinoids, U937.

On to `C=C(C)[C@@H]1CCC(C)=C[C@H]1c1c(O)cc(CCCCC)cc1O` [CBD, (1′R,2′R)-5′-methyl-4-pentyl-2′-(prop-1-en-2-yl)-1′,2′,3′,4′-tetrahydro-[1,1′-biphenyl]-2,6-diol], for which the IC50 in experiment [1] (read-out: IC50 SOCE Jurkat) was 7.42 µg/mL; in [2] (setting [12]) it was greater than 50 µg/mL; in experiment [3], greater than 50 µg/mL; in [4] (setting [13]) it was 2.53 µg/mL (≈ 8.05 µM); in experiment [5] (setting [14]), greater than 50 µg/mL; in [6] it was greater than 30 µM. Besides, the “Effect on SOCE (Ca2+ signals), pure compounds” value in experiment [1] (Jurkat cells, compounds at 10 μM, 1 μM thapsigargin) is given as “low to no effects”. Moreover, in experiment [1] (Jurkat cells), the “IC50 on SOCE relative to acidic variations” value is given as “higher IC50 than their acidic variations”. Further, the “Combinatory effect on SOCE inhibition when paired with CBGA” value (“Combinatory effect on SOCE inhibition” for short) in [1] (Jurkat cells) was “Simple additive behavior”. For the same compound, in [7], the “Combinatory effect when paired with 2.2 μM CBGA” value (“Combinatory effect when paired” for short) was “sub-additive”.
On to `CCCCCc1cc(O)c(C/C=C(\C)CCC=C(C)C)c(O)c1` [CBG, (E)-2-(3,7-dimethylocta-2,6-dien-1-yl)-5-pentylbenzene-1,3-diol], for which the IC50 in [1] (setting [15]) was 2.36 µg/mL; in [2] (setting [16]) it was 33.5 µg/mL (≈ 106 µM); in [3], 33.6 µg/mL (≈ 106 µM); in experiment [4] (setting [13]) it was 3.29 µg/mL (≈ 10.4 µM); in experiment [5] (setting [14]), greater than 50 µg/mL; in experiment [6], greater than 30 µM. In experiment [1] (Jurkat cells), the “IC50 on SOCE relative to acidic variations” value is on record as “higher IC50 than their acidic variations”. The “Combinatory effect on SOCE inhibition” value in experiment [1] (Jurkat cells) is “stronger than predicted inhibitions”. Besides, the “Combinatory effect when paired” value in experiment [7] is “simple additive agonists”.
On to `CCCCCc1cc(O)c(C/C=C(\C)CCC=C(C)C)c(O)c1C(=O)O` [CBGA, (E)-3-(3,7-dimethylocta-2,6-dien-1-yl)-2,4-dihydroxy-6-pentylbenzoic acid], for which the IC50 in experiment [1] (setting [15]) was 0.53 µg/mL; in experiment [1] (read-out: IC50 inhibition of SOCE-mediated increases in intracellular Ca2+, FIG. 15, cell type not stated there) it was roughly 2 µM; in [2] (setting [16]) it was 2.23 µg/mL (≈ 6.19 µM); in experiment [3] it was 2.21 µg/mL (≈ 6.13 µM); in experiment [4] (setting [13]), 0.27 µg/mL (≈ 0.749 µM); in [5] (setting [14]), 5.72 µg/mL (≈ 15.9 µM). The IC50 in [6] is roughly 2.2 µM. The “Inhibitory effect in immune cells compared with non-immune HEK293 cells” value in experiment [5] (Jurkat vs HEK293 screening, 10 μM) was “more potent”. Moreover, the “Block of inward CRAC current (ICRAC)” value in experiment [8] is reported as “completely blocks”. The “Block of outward TRPM7 current” value in experiment [9] was “blocks”. The “Block of TRPM7 current” value in experiment [10] is on record as “dose-dependent block”.
Turning to `CCCc1cc(O)c(C/C=C(\C)CCC=C(C)C)c(O)c1` [CBGV, (E)-2-(3,7-dimethylocta-2,6-dien-1-yl)-5-propylbenzene-1,3-diol], the IC50 in experiment [1] (read-out: IC50 SOCE Jurkat) is 5.27 µg/mL; in [2] (setting [12]), 14.5 µg/mL (≈ 50.3 µM); in experiment [3] it was 40.7 µg/mL (≈ 141 µM); in experiment [4] (RBL-2H3, read-out: IC50 SOCE RBL-2H3), 6.46 µg/mL (≈ 22.4 µM); in experiment [5] (HEK293, read-out: IC50 SOCE HEK-293), 30.9 µg/mL (≈ 107 µM); in [6], greater than 30 µM. Also, the “Combinatory effect on SOCE inhibition” value in experiment [1] (Jurkat cells) is listed as “stronger than predicted inhibitions”. In addition, the “Combinatory effect when paired” value in experiment [7] is given as “simple additive agonists”.
`CCCCCc1cc(O)c2c(c1)OC(C)(C)c1ccc(C)cc1-2` [CBN, 6,6,9-trimethyl-3-pentyl-6H-benzo[c]chromen-1-ol]: the IC50 is 9.09 µg/mL in [1] (setting [15]); 45.3 µg/mL (≈ 146 µM) in [2] (setting [16]); greater than 50 µg/mL in experiment [3]; 33.4 µg/mL (≈ 108 µM) in experiment [4] (setting [13]); 42.6 µg/mL (≈ 137 µM) in experiment [5] (setting [14]); greater than 30 µM in [6]. Moreover, in [1] (Jurkat cells), the “Combinatory effect on SOCE inhibition” value is listed as “Simple additive behavior”. Further, in experiment [7], the “Combinatory effect when paired” value was “simple additive agonists”.
Consider `[Cl][Gd]([Cl])[Cl]` [Gd^3+, Gadolinium Chloride], for which, in experiment [11], the “Effect on thapsigargin-induced SOCE (f340/f380 ratio)” value is “inhibited SOCE”.
In the case of `CCCc1cc2c(c(O)c1C(=O)O)[C@@H]1C=C(C)CC[C@H]1C(C)(C)O2` [THCVA, (6aR,10aR)-1-hydroxy-6,6,9-trimethyl-3-propyl-6a,7,8,10a-tetrahydro-6H-benzo[c]chromene-2-carboxylic acid], the IC50 in [1] (setting [15]) is 0.633 µg/mL; in [2] (setting [16]), 20.2 µg/mL (≈ 61 µM); in experiment [3] it was 9.43 µg/mL (≈ 28.5 µM); in experiment [4] (setting [13]), 20.2 µg/mL (≈ 61.2 µM); in experiment [5] (setting [14]) it was 21.3 µg/mL (≈ 64.6 µM). Besides, the “Combinatory effect on SOCE inhibition” value in [1] (Jurkat cells) is recorded as “stronger than predicted inhibitions”; in experiment [6] (THP-1 cells, isobolographic analysis, pairs expected to inhibit 50%), “sub-additive combinatory effects”.
Take `CCCCCc1cc(O)c2c(c1)OC(C)(C)[C@@H]1CC=C(C)C[C@@H]21` [Δ8-THC, (6aR,10aR)-6,6,9-trimethyl-3-pentyl-6a,7,10,10a-tetrahydro-6H-benzo[c]chromen-1-ol]: the IC50 is 14.2 µg/mL in experiment [1] (setting [15]); greater than 50 µg/mL in experiment [2] (setting [16]); greater than 50 µg/mL in [3]; 39.7 µg/mL (≈ 126 µM) in experiment [4] (setting [13]); greater than 50 µg/mL in experiment [5] (setting [14]); greater than 30 µM in [6]. Also, in experiment [1] (Jurkat cells), the “Combinatory effect on SOCE inhibition” value is on record as “inhibit less than predicted”. The “Combinatory effect when paired” value in [7] is given as “sub-additive”.

Usually IC50 stands for the concentration that inhibits the measured activity by half.
